Legend:
[1] = for viscosity / mass density: 101.33 kPa, Liquid; for viscosity: Concentric cylinders viscometry; for mass density: Vibrating tube method; for surface tension liquid-gas: Pendant drop shape
[2] = refractive index (Na D-line) (dimensionless); details: 101.33 kPa, Liquid, Standard Abbe refractometry

CC(C)C[P+](C)(CC(C)C)CC(C)C.Cc1ccc(S(=O)(=O)[O-])cc1 [triisobutylmethylphosphonium p-toluenesulfonate]
Details	mass density, [1] [kg/m3]	refractive index, [2]	surface tension liquid-gas, [1] [mN/m]	viscosity, [1] [mPa·s]
283.15 K	1082.4	1.52489	–	21829
288.15 K	1079.3	1.52338	–	11305
293.15 K	1076.2	1.5217	–	6231.9
293.2 K	–	–	38.1	–
298.15 K	1073.2	1.5203	–	3612.4
298.2 K	–	–	37.3	–
303.15 K	1070.1	1.51828	–	2199.9
303.2 K	–	–	36.6	–
308.15 K	1067	1.51635	–	1397.3
313.1 K	–	–	35.5	–
313.15 K	1064	1.51433	–	917.9
318.15 K	1060.9	1.51233	–	623.7
323.1 K	–	–	35	–
323.15 K	1057.7	1.51055	–	436.2
328.15 K	1054.7	1.50872	–	313.1
333.1 K	–	–	34.3	–
333.15 K	1051.8	1.50698	–	230.1
338.15 K	1048.8	1.50537	–	172.7
343.15 K	1045.9	1.50391	–	132.1
348.15 K	1043.1	1.50252	–	102.8
353.15 K	1040.2	1.50124	–	81.3

CCCCCCCC[P+](CCCCCCCC)(CCCCCCCC)CCCCCCCC.[Br-] [tetraoctylphosphonium bromide]
Details	mass density, [1] [kg/m3]	refractive index, [2]	surface tension liquid-gas, [1] [mN/m]	viscosity, [1] [mPa·s]
318.1 K	–	–	27.4	–
318.15 K	945	1.48262	–	376.5
323.1 K	–	–	27.1	–
323.15 K	942	1.48092	–	289.9
328.15 K	938.9	1.47916	–	226.4
333.1 K	–	–	26.6	–
333.15 K	935.9	1.47699	–	178.7
338.15 K	932.9	1.47523	–	142.1
343.1 K	–	–	26	–
343.15 K	929.8	1.47354	–	114.4
348.15 K	926.8	1.47195	–	93.4
353.15 K	923.7	1.47035	–	76.8

CCCC[P+](C)(CCCC)CCCC.COS(=O)(=O)[O-] [tributylmethylphosphonium methyl sulfate]
Details	mass density, [1] [kg/m3]	refractive index, [2]	surface tension liquid-gas, [1] [mN/m]	viscosity, [1] [mPa·s]
283.15 K	1076.5	1.48038	–	6214.1
288.15 K	1073.4	1.47891	–	3840.1
293.15 K	1070.3	1.47742	–	2476.4
293.2 K	–	–	35.5	–
298.15 K	1067.2	1.47632	–	1629.2
298.2 K	–	–	34.7	–
303.15 K	1064.1	1.47427	–	1109.1
303.2 K	–	–	34.1	–
308.15 K	1061	1.47232	–	774.5
313.1 K	–	–	33.5	–
313.15 K	1057.9	1.47072	–	555
318.15 K	1054.8	1.46912	–	403.6
323.1 K	–	–	32.9	–
323.15 K	1051.8	1.46758	–	300
328.15 K	1048.9	1.46603	–	227
333.1 K	–	–	32.2	–
333.15 K	1045.9	1.46457	–	174.7
338.15 K	1043	1.46318	–	136.3
343.15 K	1040.1	1.46185	–	107.9
348.15 K	1037.3	1.46067	–	86.4
353.15 K	1034.4	1.45965	–	70

CCCC[P+](CC)(CCCC)CCCC.CCOP(=O)([O-])OCC [tributylethylphosphonium diethylphosphate]
Details	mass density, [1] [kg/m3]	refractive index, [2]	surface tension liquid-gas, [1] [mN/m]	viscosity, [1] [mPa·s]
283.15 K	1021.5	1.47176	–	1018.4
288.15 K	1018	1.46996	–	669.5
293.15 K	1014.4	1.46809	–	466.4
293.2 K	–	–	31.4	–
298.15 K	1010.9	1.46618	–	316.8
298.2 K	–	–	30.5	–
303.15 K	1007.5	1.46474	–	226.7
303.2 K	–	–	29.8	–
308.15 K	1004.1	1.46308	–	166
313.1 K	–	–	29.2	–
313.15 K	1000.7	1.4611	–	124.7
318.15 K	997.6	1.45923	–	94.6
323.1 K	–	–	28.5	–
323.15 K	994.3	1.45738	–	73.4
328.15 K	990.9	1.45563	–	57.9
333.1 K	–	–	27.5	–
333.15 K	987.6	1.45385	–	46.4
338.15 K	984.3	1.45212	–	37.5
343.1 K	–	–	31.4	–
343.15 K	980.9	1.45045	–	30.8
348.15 K	977.6	1.4488	–	25.6
353.15 K	974.3	1.44718	–	21.6

From the NIST ThermoML archive (doi:10.1016/j.fluid.2015.05.009)
